Data: patent US4372970A, “Benzofuran acetic acid esters and their arthropocidal compositions” (Shell Internationale Research Maatschappij B.V., priority 1979, dated 1983)

What was measured:
insects = details: about times that of natural pyrethrum; cited from earlier work
[1] = tested on: lettuce, cucumber, dwarf French beans, tomato or broad bean; assay: Phytotoxicity on foliage; type: in vivo; details: 100 p.p.m. on foliage
Text: Phytotoxicity is an important feature when the insecticide is applied to foliage.

SMILES	activity relative to natural pyrethrum (insects)	phytotoxicity [1]
CC(C)=CC1C(C(=O)OCc2coc(Cc3ccccc3)c2)C1(C)C (centres unmarked) [Resmethrin, 5-benzyl-3-furylmethylchrysanthemumate]	about 20 times	
CC(C)C(C(=O)OC(C#N)c1cccc(Oc2ccccc2)c1)c1ccc(Cl)cc1 (stereo not drawn) [fenvalerate, α-cyano-3-phenoxy-benzyl 2-(4-chlorophenyl)-3-methylbutyrate]		phytotoxicity was observed
